Data published in patent US10654837B2, “Sulphamoylaryl derivatives and use thereof as medicaments for the treatment of liver fibrosis” (Janssen Pharmaceutica NV, priority 2017, dated 2020).

Target: T1, 5HTR2B (Homo sapiens, UniProt P41595)
T1 construct: host or cells: human Maverick/293 cells
Test: 5HTR2B antagonist activity, calcium mobilization assay in human Maverick/293 cells (serotonin as agonist)
Format: cell-based
Conditions: intracellular calcium, emission 525 nm, read-out: Ca assay IC50
Description: The 5HTR2B antagonist activity was measured using human Maverick/293 cells in a calcium mobilization assay. The measurement starting with plating human Maverick/293 cells (log phase) onto 96-well black and incubate at 37° C. overnight, Followed by starving cells for 2 h by changing complete medium to DMEM without FBS, removing the medium from the 96-well plate. Loading staining calcium buffer into each well and incubated the plate at 37° C. for 50 min. After removal of staining calcium buffer, diluted antagonist were added into the well, incubate 15 to 30 minutes. Dispense serotonin as the 5HTR2B agonists into each well. Intracellular calcium concentration is recorded for 80 seconds by monitoring an emission at a wavelength of 525 nm with an excitation wavelength of 485 nm. Inhibition efficiency of the cell line was determined following the equation: % Inhibition=100%−(D−B)/(S−B)*100%. (S: The peak value in the presence of agonist serotonin; D: The peak value in the presence of different dilution compound or serotonin; B: The peak value in the presence of calcium HBSS buffer only). […] A dose response curve was fitted using nonlinear regression model with a sigmoidal dose response. The IC50 was automatically produced by GraphPad Prism 5.0.

T1 sequence (P41595 whole entry): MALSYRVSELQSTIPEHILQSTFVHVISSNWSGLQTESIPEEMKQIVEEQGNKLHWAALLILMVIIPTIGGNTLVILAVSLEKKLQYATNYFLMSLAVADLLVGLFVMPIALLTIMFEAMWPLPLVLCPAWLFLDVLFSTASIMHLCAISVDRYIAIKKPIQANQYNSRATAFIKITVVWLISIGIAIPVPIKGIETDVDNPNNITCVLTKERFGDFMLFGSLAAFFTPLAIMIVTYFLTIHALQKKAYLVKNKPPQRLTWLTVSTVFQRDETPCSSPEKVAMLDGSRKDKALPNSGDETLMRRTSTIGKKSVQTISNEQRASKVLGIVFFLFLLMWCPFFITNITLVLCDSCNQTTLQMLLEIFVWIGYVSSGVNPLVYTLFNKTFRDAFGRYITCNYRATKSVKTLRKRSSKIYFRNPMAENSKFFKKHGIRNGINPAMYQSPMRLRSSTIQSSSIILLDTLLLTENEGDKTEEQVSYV

SMILES | IC50 [nM]
COc1ccc(S(=O)(=O)N[C@H]2CCNC2)cc1C(=O)Nc1ccc(F)cc1F [Compound 182] | 0.3
COc1ccc(S(=O)(=O)N[C@H]2CCOC2)cc1C(=O)Nc1ncc(F)cc1F [Compound 118, (S)—N-(3,5-Difluoropyridin-2-yl)-2-methoxy-5-(N-(tetrahydrofuran-3-yl)sulfamoyl)benzamide] | 6.7
COc1ccc(S(=O)(=O)N[C@H]2CC[C@@H](O)CC2)cc1C(=O)Nc1ccc(F)c(C)n1 [Compound 27, N-(5-Fluoro-6-methylpyridin-2-yl)-5-(N-((cis)-4-hydroxycyclohexyl)sulfamoyl)-2-methoxybenzamide] | 1.1
COc1ccc(S(=O)(=O)NC2(C)COC2)cc1C(=O)Nc1ccccc1Cl [Compound 58, N-(2-Chlorophenyl)-2-methoxy-5-(N-(3-methyloxetan-3-yl)sulfamoyl) benzamide] | 0.2
COc1ccc(S(=O)(=O)N[C@H]2CCOC2)cc1C(=O)Nc1ccccc1Br [Compound 123, (S)—N-(2-Bromophenyl)-2-methoxy-5-(N-(tetrahydrofuran-3-yl)sulfamoyl) benzamide] | 0.2
COc1ccc(S(=O)(=O)NC2CCC2)cc1C(=O)Nc1ccc(F)cc1 [Compound 47, 5-(N-Cyclobutylsulfamoyl)-N-(4-fluorophenyl)-2-methoxybenzamide] | 0.5
COc1ccc(S(N)(=O)=O)cc1C(=O)Nc1ccc(F)c(C)n1 [Compound 22] | 610
COc1ccc(S(=O)(=O)N[C@H]2CCOC2)cc1C(=O)Nc1ccc(F)c(Cl)c1 [Compound 112, (S)—N-(3-Chloro-4-fluorophenyl)-2-methoxy-5-(N-(tetrahydrofuran-3-yl)sulfamoyl)benzamide] | 2.9
COc1ccc(S(=O)(=O)N[C@H]2CCOC2)cc1C(=O)Nc1ccn(C)n1 [Compound 79, (S)-2-Methoxy-N-(1-methyl-1H-pyrazol-3-yl)-5-(N-(tetrahydrofuran-3-yl)sulfamoyl)benzamide] | 98
COc1ccc(S(=O)(=O)N[C@H]2CCOC2)cc1C(=O)Nc1ccc(C#N)c(F)c1 [Compound 90] | 1360
COc1ccc(S(=O)(=O)N[C@H]2CCOC2)cc1C(=O)Nc1cc(C)c(F)cn1 [Compound 161, (S)—N-(5-Fluoro-4-methylpyridin-2-yl)-2-methoxy-5-(N-(tetrahydrofuran-3-yl)sulfamoyl)benzamide] | 79
[2H]C([2H])([2H])Oc1ccc(S(=O)(=O)N[C@H]2CCOC2)cc1C(=O)Nc1ccc(F)c(C2CC2)n1 [Compound 195, (S)—N-(6-cyclopropyl-5-fluoropyridin-2-yl)-2-(methoxy-d3)-5-(N-(tetrahydrofuran-3-yl)sulfamoyl)benzamide] | 0.9
COc1ccc(S(=O)(=O)N[C@H]2CCOC2)cc1C(=O)Nc1cc(F)cc(C#N)c1 [Compound 87, (S)—N-(3-Cyano-5-fluorophenyl)-2-methoxy-5-(N-(tetrahydrofuran-3-yl)sulfamoyl)benzamide] | 29
COc1ccc(S(=O)(=O)N[C@H]2CCOC2)cc1C(=O)Nc1ccc(F)c(C)n1 [Compound 2] | 0.6
COc1ccc(S(=O)(=O)N[C@H]2CCOC2)cc1C(=O)Nc1cccc(C(F)(F)F)c1 [Compound 109, (S)-2-Methoxy-5-(N-(tetrahydrofuran-3-yl)sulfamoyl)-N-(3-(trifluoromethyl)phenyl)benzamide] | 231
COc1cc(F)ccc1NC(=O)c1cc(S(=O)(=O)N[C@H]2CCOC2)ccc1OC [Compound 135, (S)—N-(4-fluoro-2-methoxyphenyl)-2-methoxy-5-(N-(tetrahydrofuran-3-yl)sulfamoyl)benzamide] | 0.1
COc1ccc(S(=O)(=O)N[C@H]2CCNC2)cc1C(=O)Nc1ccc(F)c(C)c1 [Compound 187, (S)—N-(4-fluoro-3-methylphenyl)-2-methoxy-5-(N-(pyrrolidin-3-yl)sulfamoyl) benzamide] | 0.7
CCOc1ccc(S(=O)(=O)N[C@H]2CCOC2)cc1C(=O)Nc1ccc(F)c(C)n1 [Compound 198, (S)-2-ethoxy-N-(5-fluoro-6-methylpyridin-2-yl)-5-(N-(tetrahydrofuran-3-yl)sulfamoyl)benzamide] | 0.7
COc1ccc(S(=O)(=O)NC2(C)COC2)cc1C(=O)Nc1ccc(F)c(C(F)F)c1 [Compound 36, N-(3-(Difluoromethyl)-4-fluorophenyl)-2-methoxy-5-(N-(3-methyloxetan-3-yl)sulfamoyl)benzamide] | 2.7
COc1ccc(S(=O)(=O)N[C@H]2CCOC2)cc1C(=O)Nc1ncc(F)cn1 [Compound 117, (S)—N-(5-Fluoropyrimidin-2-yl)-2-methoxy-5-(N-(tetrahydrofuran-3-yl)sulfamoyl)benzamide] | 64
COc1ccccc1NC(=O)c1cc(S(=O)(=O)N[C@H]2CCNC2)ccc1OC [Compound 184, (S)-2-methoxy-N-(2-methoxyphenyl)-5-(N-(pyrrolidin-3-yl)sulfamoyl) benzamide] | 0.3
COc1ccc(S(=O)(=O)NC2COC2)cc1C(=O)Nc1ccc(F)cc1 [Compound 43, N-(4-Fluorophenyl)-2-methoxy-5-(N-(oxetan-3-yl)sulfamoyl)benzamide] | 7.2
COc1ccc(S(=O)(=O)N[C@H]2CCOC2)cc1C(=O)Nc1ccccc1OC(F)F [Compound 128, (S)—N-(2-(Difluoromethoxy)phenyl)-2-methoxy-5-(N-(tetrahydrofuran-3-yl)sulfamoyl)benzamide] | 1.2

Further lines, results first:

IC50 [nM] | SMILES
1 | COc1ccc(S(=O)(=O)N[C@@H]2CC[C@H](O)C2)cc1C(=O)Nc1ccc(F)c(C)c1 (single isomer, unassigned) [Compound 15b, N-(4-Fluoro-3-methylphenyl)-5-(N-((cis)-3-hydroxycyclopentyl)sulfamoyl)-2-methoxybenzamide]
3.9 | COc1ccc(S(=O)(=O)N[C@H]2C[C@H](O)C2)cc1C(=O)Nc1cccc(C)c1Cl [Compound 140a, N-(2-Chloro-3-methylphenyl)-5-(N-((trans)-3-hydroxycyclobutyl)sulfamoyl)-2-methoxybenzamide]
3.9 | COc1ccc(S(=O)(=O)N[C@H]2C[C@H](O)C2)cc1C(=O)Nc1ccc(F)c(C(F)F)n1 [Compound 174a, N-(6-(Difluoromethyl)-5-fluoropyridin-2-yl)-5-(N-((trans)-3-hydroxycyclobutyl)sulfamoyl)-2-methoxybenzamide]
167 | COc1ccc(S(=O)(=O)N[C@H](C)C(N)=O)cc1C(=O)Nc1ccc(F)c(C(F)F)c1 [Compound 34b, (R)-5-(N-(1-Amino-1-oxopropan-2-yl)sulfamoyl)-N-(3-(difluoromethyl)-4-fluorophenyl)-2-methoxybenzamide]
9.5 | COC[C@@H](C)NS(=O)(=O)c1ccc(OC)c(C(=O)Nc2ccc(F)cc2)c1 (single isomer, unassigned) [Compound 40b, (R*)—N-(4-Fluorophenyl)-2-methoxy-5-(N-(1-methoxypropan-2-yl)sulfamoyl) benzamide]
0.3 | COc1ccc(S(=O)(=O)N[C@H]2C[C@@H](O)C2)cc1C(=O)Nc1ccc(F)cc1Cl [Compound 144b, N-(2-chloro-4-fluorophenyl)-5-(N-((cis)-3-hydroxycyclobutyl)sulfamoyl)-2-methoxybenzamide]
1.7 | COc1ccc(S(=O)(=O)N[C@H]2C[C@@H](O)C2)cc1C(=O)Nc1ccc(F)c(C(F)F)n1 [Compound 174b, N-(6-(Difluoromethyl)-5-fluoropyridin-2-yl)-5-(N-((cis)-3-hydroxycyclobutyl)sulfamoyl)-2-methoxybenzamide]
9.1 | COc1ccc(S(=O)(=O)NC2CCCOC2)cc1C(=O)Nc1ccc(F)c(C)n1 (single isomer, unassigned) [Compound 16b, (R*)—N-(5-Fluoro-6-methylpyridin-2-yl)-2-methoxy-5-(N-(tetrahydro-2H-pyran-3-yl)sulfamoyl)benzamide]
18 | COc1ccc(S(=O)(=O)N[C@H]2C[C@H](O)C2)cc1C(=O)Nc1ccc(F)c(C)c1 [Compound 6a, N-(4-Fluoro-3-methylphenyl)-5-(N-((trans)-3-hydroxycyclobutyl)sulfamoyl)-2-methoxybenzamide]
1.1 | COc1ccc(S(=O)(=O)NC2CCCOC2)cc1C(=O)Nc1ccc(F)c(C)n1 (single isomer, unassigned) [Compound 16a, (S*)—N-(5-Fluoro-6-methylpyridin-2-yl)-2-methoxy-5-(N-(tetrahydro-2H-pyran-3-yl)sulfamoyl)benzamide]
5.9 | COc1ccc(S(=O)(=O)N[C@H]2C[C@@H](O)C2)cc1C(=O)Nc1ccc(Cl)cc1F [Compound 143b, N-(4-chloro-2-fluorophenyl)-5-(N-((cis)-3-hydroxycyclobutyl)sulfamoyl)-2-methoxybenzamide]
159 | COc1ccc(S(=O)(=O)N[C@H]2C[C@H](O)C2)cc1C(=O)Nc1c(C)cccc1Cl [Compound 138a, N-(2-Chloro-6-methylphenyl)-5-(N-((trans)-3-hydroxycyclobutyl)sulfamoyl)-2-methoxybenzamide]
122 | COc1ccc(S(=O)(=O)N[C@H](C)C(N)=O)cc1C(=O)Nc1ccc(F)c(C)c1 [Compound 12b, (R)-5-(N-(1-Amino-1-oxopropan-2-yl)sulfamoyl)-N-(4-fluoro-3-methylphenyl)-2-methoxybenzamide]
4.5 | COc1ccc(S(=O)(=O)N[C@@H](C)CO)cc1C(=O)Nc1ccc(F)c(C)c1 [Compound 10a, (S)—N-(4-Fluoro-3-methylphenyl)-5-(N-(1-hydroxypropan-2-yl)sulfamoyl)-2-methoxybenzamide]
